Laboratory results as given in patent publication US11426422B2, “SHP2 inhibitors and methods of use thereof” (Research Development Foundation, priority 2018, dated 2022).

Tests used:
HFD-fed mice [1] = assay: insulin tolerance test in HFD-fed mice; format: in vivo; conditions: 60 mg/kg daily oral gavage for 6 days; male mice fed HFD 5 weeks; insulin 1 U/kg
Protocol: (§1) (FIG. 3A) Glucose tolerance test in 14 h fasted male mice fed a HFD for 5 weeks. […] At 1 day after drug treatment, glucose tolerance test was performed. Mean±SEM. (FIG. 3B) Insulin tolerance test of mice treated as described in FIG. 3A. Mean±SEM. […] The liver sections were stained with anti-IR (red) and DAPI (blue). Scale bars, 5 μm. (FIG. 3D) Quantification of the ratios of PM and IC IR signals of the livers in C (mean±SD; *p<0.0001). […] Cell lysates were blotted with the indicated antibodies.
(§2) The IR staining at the PM in liver sections from mice fed with HFD was weak, and insulin stimulation further reduced it and caused IR endocytosis (FIGS. 3C and D).
(§3) All animals were maintained in a specific antigen-free barrier facility with 12 h light/dark cycles (6 AM on and 6 PM off). Mice were fed a standard rodent chow (2016 Teklad Global 16% protein rodent diet, Harlan Laboratories). […] For glucose tolerance test, mice were fasted for 14 h, and their blood glucose levels (T=0) were measured with tail bleeding using a glucometer (AlphaTRAK®). […] Blood glucose levels were measured at 15, 30, 60, and 120 min after glucose injection. For insulin tolerance test, mice fasted for 4 h were injected intraperitoneally with recombinant human insulin (Eli Lilly) at 1 U/kg body weight, and their blood glucose levels were measured at 0, 15, 30 and 60 min after injection.

IR in liver sections = assay: IR staining at the PM in liver sections of HFD-fed mice; format: in vivo; conditions: 60 mg/kg oral for 6 days
Protocol: as §1, §2
The fixation, histological analysis, and immunohistochemistry of mouse tissues were performed as described previously (Choi et al., 2016). For human patient sample analysis, the deparaffinized sections were subjected to antigen retrieval with 10 mM sodium citrate (pH 6.0), incubated with 0.3% H2O2, blocked with 0.3% BSA, and then incubated first with anti-IR (CT3, Millipore®, 1:100) and anti-ZO1 (Thermo Scientific®, 1:200) antibodies and then with secondary antibodies (AlexaFluor® 568 goat anti-mouse and AlexaFluor® 488 goat anti-rabbit; Molecular Probes®). […] The total cell numbers and numbers of IR PM-positive cells were counted at least twice for individual images. Over 100 cells were analyzed for each patient samples. […]

[2] = test system: HepG2 cells expressing IR-GFP mutants; assay: cellular localization of IR-GFP mutants in HepG2 cells after inhibitors; format: cell-based; conditions: starved 14 h, inhibitors 4 h, no insulin
Source text: FIGS. 4A-E. Dysregulation of IR endocytosis as a potential contributing factor to human insulin resistance syndromes. (FIG. 4A) Representative images of liver specimens from human non-diabetes and diabetes patients stained with DAPI (blue) and anti-IR (red) and anti-ZO-1 (green) antibodies. Scale bars, 40 μm. (FIG. 4B) Quantification of the percentage of cells with positive IR PM signals in liver specimens in FIG. 4A (mean±SD; *p<0.0001). (FIG. 4C) HepG2 cells stably expressing IR-GFP R1020Q, V1054M, A1075D, V1086E, or I1143T were serum starved and stained with anti-GFP and anti-RAB7 antibodies. Scale bar, 5 μm. (FIG. 4D) Quantification of the ratios of PM and IC IR-GFP signals of cells in FIG. 4C (mean±SD; *p<0.0001). (FIG. 4E) Targeting feedback regulation of IR endocytosis for diabetes treatment. Left panel depicts the feedback regulation of IR endocytosis by ERK1/2 and SHP2 during unperturbed insulin signaling.
FIGS. 9A-D. Characterization of IR mutations found in human patients. (FIG. 9A) HepG2 cells expressing IR-GFP Class I mutants (P997T, V1012M, A1055V, K1095E, R1119Q, H1157R, R1191Q, Y1361C, or R1378Q) were starved for 14 h, treated with the indicated inhibitors for 4 h, and stained with anti-GFP (IR; green) and DAPI (blue). Scale bar, 5 m. (FIG. 9B) HepG2 cells expressing IR-GFP Class II mutants (R1020Q, V1054M, A1075D, V1086E, or I1143T) were analyzed as described in FIG. 9A. (FIG. 9C) HepG2 cells expressing IR-GFP Class III mutants (A1162E or W1220L) were analyzed as described in A. (FIG. 9D) HepG2 cells expressing IR-GFP WT, R1020Q, or V1054M were serum starved for 14 h and treated with DMSO or 80 μM Dynasore for 4 h. Cell lysates were blotted with the indicated antibodies.
Mutations of IR are known to cause inherited severe insulin resistance syndromes, but the mechanisms by which these mutations affect IR function have not been systematically explored. HepG2 cell lines were generated which stably expressed IR mutants fused to GFP, and the subcellular localization of these IR-GFP proteins was examined (FIGS. 9A-C and Table 1).
There were three distinct classes of IR mutants based on their subcellular localization in the unstimulated state. Class I mutants localized to the PM. […] Thus, certain IR mutations found in human insulin resistance syndromes perturbs IR kinase regulation and causes premature IR endocytosis.
Cellular localization of IR mutants was examined after inhibiting the SHP2 or MAPK pathways (FIGS. 4C-D, and FIGS. 9A-C).
Indirect immunofluorescence microscopy was performed on cells grown on coverslips and fixed in cold methanol at −20° C. for 10 min. The fixed cells were incubated with PBS for 30 min and 3% BSA in 0.1% PBST for 1 h, and then treated with diluted antibodies in 0.3% BSA in 0.1% PBST at 4° C. overnight. After being washed, cells were incubated with fluorescent secondary antibodies and mounted on microscope slides in ProLong Gold Antifade reagent with DAPI (Invitrogen). Images of fixed cells were acquired as a series of 0.4 m stacks with a DeltaVision® system (Applied Precision®, Issaquah, Wash.). Raw images were deconvolved using the iterative algorithm implemented in the softWoRx® software (Applied Precision®, Issaquash, Wash.). The central section of a 0.4 μm z-stack containing 3 contiguous focal planes was used for quantification. The cell edges were defined with Image J. The whole cell signal intensity (WC) and intracellular signal intensity (IC) were measured. The plasma membrane signal intensity (PM) was calculated by subtracting IC from WC. Identical exposure times and magnifications were used for all comparative analyses.

HFD-fed mice [3] = assay: glucose tolerance test in HFD-fed mice; format: in vivo; conditions: 60 mg/kg daily oral gavage for 6 days; male mice fed HFD 5 weeks; 14 h fasted
Protocol: as §1, §2, §3

Q: Which insulin sensitivity (HFD-fed mice [1]) does the source give for `CC1(N)CCN(c2cnc(-c3cccc(Cl)c3Cl)c(N)n2)CC1` [SHP099] here?
A: Its insulin sensitivity is “markedly increased”.

Q: What about the “insulin-activated IR endocytosis in liver” value (IR in liver sections; 5 U insulin via inferior vena cava) of the same molecule?
A: The value was “blocked insulin-activated IR endocytosis”.

Q: What about the “IR signal at the PM in liver” value (IR in liver sections; in the absence of insulin) of the same molecule?
A: Its value is “elevated the IR signal at the PM”.

Q: What about the “PM levels of Class I and III IR mutants” value [2] of the same molecule?
A: Its value is “not those of Class I and III IR mutants”.

Q: And the “PM levels of Class II IR mutants” value ([2]; R1020Q, V1054M, A1075D, V1086E, I1143T)?
A: The value was “significantly enhanced the PM levels of Class II IR mutants”.

Q: And the glucose tolerance (HFD-fed mice [3])?
A: The glucose tolerance was “markedly increased glucose tolerance”.
